From patent publication US7572785B2, “Substituted imidazoles as cannabinoid receptor modulators” (Merck & Co., Inc., priority 2001, dated 2009)

In the case of Cn1c(C(=O)NC2CCCCC2)nc(-c2ccc(Cl)cc2Cl)c1-c1ccc(Cl)cc1, the melting point is reported as 165 °C.
